Reference: paper PMC3514216, “SRC Homology 2 Domain Binding Sites in Insulin, IGF-1 and FGF receptor mediated signaling networks reveal an extensive potential interactome” (Cell Communication and Signaling : CCS, 2012)

System: panel of 50 SH2 domains
Test: SPOT peptide array probed with each of 50 GST-SH2 domains
Format: binding
Conditions: SPOT192 peptide array; for SH2 Domains >3X: list of GST-SH2 domains with spot intensity >3X array mean (array-positive); for 2X < SH2 Domains < 3X: list of GST-SH2 domains with spot intensity between 2X and 3X array mean (indeterminate range)
Description: The use of addressable peptide arrays is a reproducible and semi-quantitative approach that has been extensively validated for studying protein interactions with peptide ligands. To investigate connections between SH2 domain proteins and their putative phosphorylated docking sites on cell surface receptors, we developed addressable arrays consisting of 192 phosphotyrosine peptides. This peptide set was assembled using 71 phosphotyrosine peptide motifs corresponding to all of the cytoplasmic tyrosine residues within the FGF receptors (FGFR1-4), insulin receptor (InsR) and IGF-1 receptor (IGF-1R) (Figure 1A). Activation of these receptors results in the phosphorylation of associated scaffold proteins, and so 75 phosphotyrosine peptides corresponding to a comprehensive list of tyrosine residues within insulin receptor substrates (IRS-1 and IRS-2) and fibroblast receptor substrates (FRS-2 and FRS-3) were included. In addition, 33 phosphotyrosine peptides were incorporated from the downstream signaling proteins PLC-γ1, p130Cas (BCAR1) and p62DOK1. […] These control peptides provide a reference and establish the empirical cut-off for designated binding interactions (Table 1). No discrimination was made against peptides on the basis of reported phosphorylation state in order to examine a diverse and unbiased set of motifs. The resulting set of 192 phosphotyrosine peptides and their corresponding position in the proteins of origin is noted in Additional file 1: Table S1. Addressable arrays were synthesized as membrane-bound 11-mer peptides using the SPOT synthesis technique. While the majority of SH2 domains recognize residues C-terminal to the phosphotyrosine in their cognate peptide ligands, additional contacts between SH2 domains and residues N-terminal to the phosphotyrosine are observed for the SH2 domain of Sh2d1a (SAP) and cannot be ruled out in other cases. Peptides were synthesized with six flanking residues C-terminal to the phosphotyrosine and four residues N-terminal to the phosphotyrosine.
To assess the potential network of SH2 domain interactions we selected 50 SH2 domains representing 28 of the 38 families of SH2 domains (Figure 1B) all of which we have previously shown can be expressed and purified. These include a number of extensively studied SH2 domains (Src, Grb2, PLCγ), as well as a number of less studied SH2 domains from proteins such as Shd, She, Shf, Slnk (Sh2d6), Sh2d1a (SAP), Sh2d1b (Eat-2), and Brdg1. To address potential variability in specificity within families we employed all members from the SHB, CRK, GRB2, SRC and ABL families (families are indicated with complete Capitalized lettering).
SH2 domains were arrayed as GST fusion proteins and detected using anti-GST primary antibodies and near-infrared labeled secondary antibodies. In an effort to present a dataset with minimal false positives, we chose an empirical cutoff based on the array average across all peptide spots to classify interactions (Figure 1A). In cases where the intensity of the signal for an individual SH2-domain binding event exceeded the mean intensity of all the peptides on the membrane by three-fold were scored as “array positives” [22]. Non-binding was judged in cases where the intensity of a spot was less than the mean intensity of all spots on the membrane and these were scored as “array negatives”. Peptides with signal intensities between 1X and 3X mean were scored as “indeterminate” and ascribed as neither array positive binding interactions nor array-negative non-binders. […] This signature may be indicative of promiscuity differences between phosphopeptides or there may be a subset of peptides which interact in a nonspecific fashion with either the GST fusion tag or one of the antibodies used for detection, resulting in false positives. […]

| Substance | SH2 Domains >3X | 2X < SH2 Domains < 3X |
| --- | --- | --- |
| AACDpYESCATA [A01] | PI3K1_C | CRKL, HCK |
| ADDGpYMPMTPG [D18] | HCK, SRC | PI3K1_C |
| ADNDpYIIPLPD [A07] | BRK, DAPP1, PLCG2_N, PLCG2_C, SRC, VAV1 | HCK, LCK, LYN, PI3K1_N, RIN1, SH2D1B, YES |
| AEDSpYGLVAPA [D06] | FGR, FYN, HCK, LCK, LYN, SH2D1B, SHC1, SHIP1, SRC, YES | BLK |
| AEDVpYDVPPPA [A04] | CRK, CRKL, HCK, NCK1, SRC | FYN, LYN, YES |
| AEPDpYGALYEG [H01] | FGR, FYN, HCK, LYN, SH2D1B, SHC1, SHIP1, SLNK, SRC, YES, ZAP70_N | BLK, BMX, LCK |
| AEPQpYEEIPIY [A10] | BLK, BRK, FER, FGR, HCK, LYN, NCK1, PLCG2_C, SHC1, SRC, YES | ABL1, BMX, DAPP1, FYN, LCK, RIN1, SH2D1B, SRC |
| AKHKpYLIALYT [D02] | BRDG1, BRK | BCAR3, BMX, FER, PLCG2_N, PTPN11_C, RIN1, SHF, TENC1 |
| AKTGpYENFIHL [B10] | GADS, GRB2, GRB7, MIST, PI3K1_N, SH2D2A, SH3BP2, TENC1 | BRDG1, BRK |
| ALLNpYENLPSL [G05] | ABL1, ABL2, CRK, FER, GADS, GRAP, GRB2, GRB7, PI3K1_C, SH2D2A, SH3BP2, TENC1 | BRK, PI3K1_N |
| APVSpYADMRTG [C21] | – | MIST |
| ARLEpYYENEKK [B19] | GRB7, MIST, SH3BP2 | SH2D2A, SHF, SHD |
| ATDDpYAVPPPR [A02/H23] | CRK, CRKL, HCK | SRC |
| ATDLpYQVPPGP [H08] | CRK | CRKL |
| AYHPpYPEDYGD [D16] | BMX | MATK, SLNK |
| CGRSpYRRVSGD [D12] | BCAR3 | BRDG1, ITK, MIST, PLCG2_N, SHB, SHF, SYK_C, TENC1 |
| CLRRpYGYDSNL [F22] | BCAR3, BMX, BRDG1, CRK, CRKL, DAPP1, FER, GRB7, MATK, MIST, PLCG2_N, SHB, SHF, SHD, TENC1 | ITK, PLCG2_C, PTPN11_C, RIN1, SH2D2A, SH3BP2 |
| CTGDpYMNMSPV [C09] | – | PI3K1_C |
| DDPSpYVNVQNL [A06] | GADS, GRAP, GRB2, SH2D1B | – |

| Substance | SH2 Domains >3X | 2X < SH2 Domains < 3X |
| --- | --- | --- |
| DGMApYLNAKKF [A23] | BCAR3, BMX, BRDG1, FER, GRB2, MIST, PTPN11_N, PTPN11_C, RIN1, Sh2b, SHF, SHD, TENC1 | BRK, DAPP1, FGR, ITK, MATK, PI3K1_N, PI3K1_C, PLCG2_N, PLCG2_C, SH3BP2, SHB, SHE, YES |
| DGPLpYVIVEYA [E06] | ITK, MIST, RASA1_N, SHB, SHF, SHE, SYK_C | SHD, TENC1 |
| DLKSpYLRSLRP [A22] | BCAR3, BMX, BRDG1, FER, MIST, PLCG2_N, Sh2b, SHB, SHF, TENC1 | BRK, ITK, MATK, PLCG2_C, PTPN11_C, RIN1, SHD, SYK_C |
| DLSApYASISFQ [C23] | PTPN11_N, PTPN11_C | SH2D1B, SHD, SHE |
| DNLPpYVQILKT [E03] | BRDG1, MIST, PI3K1_N, PTPN11_C, Sh2b, TENC1 | BCAR3, FER, GRAP, MATK, PI3K1_C, PTPN11_N, RIN1, SHD |
| DPMPpYEPALPQ [F05] | FYN, LYN, SHIP1, YES | FGR, LCK, SH2D1B, SHC1 |
| DPNGpYMMMSPS [C07] | PI3K1_C | – |
| DSDQpYVLMSSP [D23] | FYN, LYN, PI3K1_N, PI3K1_C, SHIP1 | BLK, FGR, LCK, SH2D1B |
| EDDGpYDVPKPP [A03] | CRK, CRKL, FGR, HCK, SHIP1, SRC, YES | ABL1, BLK, FYN, LYN |
| EDLSpYGDVPPG [B23] | ABL1, BRK, FGR, FYN, LCK, LYN, SH2D1B, SHC1, SHIP1, SLNK, YES | BLK, HCK, GRB7 |
| EDPIpYDEPEGL [H19] | ABL1, BLK, HCK, NCK1, SHC1, SLNK, SRC | BMX, LCK, LYN, YES |
| EDSGpYMRMWAG [D20] | FYN, PI3K1_C | LCK |
| EDYDpYVHLQGK [H13] | FYN, LCK, LYN, MIST | BLK, SH2D1B, SHC1 |
| EFYGpYMTMDRP [D11] | PI3K1_C | – |
| EGPLpYVIVEAA [F13] | ITK, MATK, PLCG2_N, RASA1_N, SYK_C | ABL2, PLCG2_C, PTPN11_N, SH2D1B |
| EGSApYEEVPTS [G20] | BRK, FGR, LYN, NCK1, SH2D1B, SHC1, YES | BLK, FER, FYN, HCK, GRB7, LCK |
| EHIPpYTHMNGG [B06] | – | PI3K1_C |
| ELILpYTRKRDS [F20] | BCAR3, BRDG1, MIST, PLCG2_N, SHF, TENC1 | BMX, DAPP1, PLCG2_C, PTPN11_C, RASA1_C, SHB, SHD |
| ELSNpYICMGGK [C01] | PI3K1_C | – |

| Substance | SH2 Domains >3X | 2X < SH2 Domains < 3X |
| --- | --- | --- |
| ENSLpYSPTWEG [H14] | ABL2, FYN, LYN, NCK1, SHC1, VAV1 | ABL1, BLK, LCK, SH2D1B, SHIP1 |
| EQDEpYDIPRHL [H10] | BRK, CRK, CRKL, FGR, FYN, LCK, LYN, RIN1, SHC1, YES | ABL1, BLK, HCK, PI3K1_N, SH2D1B, SHIP1, SRC |
| ETDYpYRKGGKG [B02] | BCAR3, BRDG1, BRK, TENC1 | BMX, MIST, PLCG2_N, RIN1, SHF, SYK_C |
| EVSFpYYSEENK [B15] | DAPP1, ITK, PLCG2_C, RASA1_C, Sh2b, SHB, SHE, SYK_C, VAV1 | ABL1, BLK, MATK, RASA1_N |
| EYRKpYGGAKLN [B07] | BCAR3, BMX, BRDG1, BRK, FER, PLCG2_N, TENC1 | ITK, MIST, PTPN11_C, RIN1, SHF, SHD, SYK_C |
| FAQLpYRSLMYS [G18] | BRDG1, MIST, Sh2b, SH2D2A, SHB, SHF, SHD, TENC1, ZAP70_N | BMX, DAPP1, GADS, GRAP, PLCG2_N, PTPN11_C, SYK_C |
| FESRpYQQPFED [H06] | ABL1, ABL2, CRK, CRKL, HCK, ITK, NCK1, RASA1_N, RASA1_C, VAV1 | MATK, PLCG2_N, SH2D2A, SRC |
| FKRSpYEEHIPY [B05] | SHB, SHF, SHD, SHE | BRDG1, TENC1 |
| GDITpYGQFAQL [G17] | – | GRB7 |
| GGEFpYGYMTMD [D10] | BCAR3, DAPP1, GRB7, PLCG2_C, SLNK | BMX, MATK, RASA1_N, RASA1_C |
| GGPLpYVLVEYA [F07] | MIST, RASA1_N, SHE, SYK_C, ZAP70_N | ITK, SHD |
| GGSPpYPGIPVE [F01] | ZAP70_N | – |
| GLDEpYDEVPMP [A05] | NCK1 | BRK, FER |
| GTEEpYMKMDLG [C18] | – | PI3K1_C |
| GVSEpYELPEDP [E05] | BRK, NCK1, PLCG2_C, VAV1, YES | BLK, BMX, DAPP1, FER, FGR, LCK, LYN, RIN1, SH3BP2, SHC1 |
| GYPRpYPSFGDA [G01] | – | ZAP70_N |
| HHIDpYYKKTSN [F16] | BCAR3, BMX, BRDG1, FER, PLCG2_N, PTPN11_C, SHF, TENC1 | DAPP1, ITK, MATK, MIST, PI3K1_N, PLCG2_C, PTPN11_N, RIN1, SH3BP2, SHB, SHD, SHIP1 |
| HHIDpYYKKTTN [E13] | BCAR3, BMX, BRDG1, FER, MIST, PLCG2_N, PTPN11_C, SHB, SHF, TENC1 | DAPP1, ITK, MATK, PI3K1_N, PTPN11_N, RIN1, SH3BP2, SHD, SHE, SHIP1, SYK_C |
| HIDYpYKKTTNG [E14] | BCAR3, BMX, BRDG1, CRK, FER, MIST, PTPN11_C, SHF, TENC1 | CRKL, ITK, PLCG2_N, PLCG2_C, PTPN11_N, RIN1, SH3BP2, SHB, SHD, SYK_C, ZAP70_N |
